Measured values from patent US20090088441A1, “Quinoline Compounds” (priority 2007, published 2009).

How the values were obtained:
[1] = target: T1, GABABR1a/GABABR2 heterodimer (Homo sapiens, UniProt O75899+Q9UBS5); test: GTPγS35 radioligand filtration-binding assay for determination of agonist potency; type: biochemical; settings: membranes of CHO K1 Flp-In cells expressing GABABR1a/GABABR2; 30° C., 1 hour
T1 construct: expressed in transfected cells; membrane preparation
Experimental: (§1) The potency and efficacy of the compounds acting as agonists at the GABAB receptor was also determined in a automated GTPγS^35 radioligand filtration-binding assay.
(§2) The GABAB receptor is a G-protein coupled receptor. Binding of a ligand activates the receptor leading to recruitment of G-protein and a substitution of the G-protein bound GDP to GTP. The G-protein becomes active. The G-protein is inactivated by hydrolysis of GTP to GDP. G-proteins are membrane bound and therefore present in membrane preparations.
(§3) In the GTPγS^35 assay, GTP is not present but instead GTPγS^35 where one of the phosphate groups are substituted to a sulphur group which cannot be hydrolysed. Upon activation of the receptor, radiolabelled GTPγS^35 replaces the GDP. The complex cannot be inactivated and the radiolabelled complex is accumulating. At the end of the assay, the reaction mixture is filtered through a membrane-binding filter. Excess GTPγS^35 is removed by washing and the membrane bound S^35, which correlates to the degree of receptor activation, is measured with a β-Liquid Scintillation Counter.
The human GABABR1a was subcloned into pIRESneo3 (Clontech) using GABABR1a construct as a template (refseqN NM001470). GABABR2 was subcloned into pcDNA5/FRT (Invitrogen) using GABABR2 construct as a template (refseqN NM005458). The Kozak sequence GCCACC was introduced before the start codon in both constructs.
For generation of stable cell lines, CHO K1 Flp-In cells (Invitrogen) were grown in DMEM/F12 1:1 media supplemented with 10% FBS at 37° C. in a humidified CO2-incubator. The cells were detached with Accutase and 1.5 million cells were seeded into T75 flasks. After 24 h, transfection of the cells were performed with the GABABR2 construct. For generation of cell lines expressing GABABR2, GABABR2 plasmid (1 μg) and pOG44 from Invitrogen (9 μg) were mixed with 30 μl Lipofectamine 2000 in 600 μl OptiMEM for 20 minutes. The cells were exposed to transfection medium for 5 hours and was then replaced with culture medium. After 2 days 0.5 mg/ml Hygromycin were added to culture medium. The cells were cultured for an additional 10 days to establish a stable cell mix expressing GABABR2. For generation of a cell line expressing the GABABR1a/GABABR2 hetrodimer, GABABR1a plasmid DNA (8 μg) and Lipofectamine (30 μl) were mixed in 600 μl OptiMEM and incubated for 20 minutes before added to CHO-Flp-In cells expressing GABABR2. After 2 days additional selection agent was added (0.8 mg/ml Geneticin). The cells were cultured for another 10 days to generate a stable mixed population expressing the GABABR1a/GABABR2 heterodimer. The cell line was analyzed by GTPγS^35 assay with GABA as agonist.
GTPγS^35 radioligand filtration-binding assays were performed using an automated workstation at 30° C. for 1 hour in assay buffer (50 mM HEPES, 40 mM NaCl, 1 mM MgCl2×6H2O, 30 μg/mL Saponin, pH 7.4 at RT) containing 0.025 μg/μL of membrane protein (prepared from the cell line described above), 10 μM GDP and 0.55 nCi/μL GTPγS^35 in a final volume of 60 μL. The reaction was started by the addition of compounds (GABA was always included as a positive control), start concentration 100 μM dilution factor 3. The reaction was terminated and membranes collected by addition of ice-cold wash buffer (50 mM Tris-HCl, 5 mM MgCl2×6H2O, 50 mM NaCl, pH 7.4 at 4° C.) followed by rapid filtration under vacuum through a MultiScreen HTS 384 FB filter plate. Repeated washing of the filters with ice-cold wash buffer washed the unbound radioligand away. The filter plates were dried for 1½-2 hours at 50° C., then 8 μL scintillation liquid was added per well followed by incubation at RT for at least 20 minutes before bound radioactivity was determined using a β-Liquid Scintillation Counter (1450 Microbeta Trilux, Wallac, Finland)
100% activation (max) is calculated as the mean value for wells containing 1 mM GABA. […]

[2] = target: T2, GABAB(1A,2) receptor heterodimer (Homo sapiens, UniProt O75899+Q9UBS5); test: GTPγS35 radioligand filtration-binding assay for determination of PAM potency; type: biochemical; settings: membranes of CHO-K1 cells expressing GABABR1a/GABABR2; GABA dose-response with 10, 1, 0.1 and 0.01 μM PAM; concentration reducing GABA's EC50 by 50%; read-out: Mean (EC50 derived) PAM EC50
T2 construct: expressed in transfected cells; membrane preparation
T2 sequence (Q9UBS5 15-961 limits assumed): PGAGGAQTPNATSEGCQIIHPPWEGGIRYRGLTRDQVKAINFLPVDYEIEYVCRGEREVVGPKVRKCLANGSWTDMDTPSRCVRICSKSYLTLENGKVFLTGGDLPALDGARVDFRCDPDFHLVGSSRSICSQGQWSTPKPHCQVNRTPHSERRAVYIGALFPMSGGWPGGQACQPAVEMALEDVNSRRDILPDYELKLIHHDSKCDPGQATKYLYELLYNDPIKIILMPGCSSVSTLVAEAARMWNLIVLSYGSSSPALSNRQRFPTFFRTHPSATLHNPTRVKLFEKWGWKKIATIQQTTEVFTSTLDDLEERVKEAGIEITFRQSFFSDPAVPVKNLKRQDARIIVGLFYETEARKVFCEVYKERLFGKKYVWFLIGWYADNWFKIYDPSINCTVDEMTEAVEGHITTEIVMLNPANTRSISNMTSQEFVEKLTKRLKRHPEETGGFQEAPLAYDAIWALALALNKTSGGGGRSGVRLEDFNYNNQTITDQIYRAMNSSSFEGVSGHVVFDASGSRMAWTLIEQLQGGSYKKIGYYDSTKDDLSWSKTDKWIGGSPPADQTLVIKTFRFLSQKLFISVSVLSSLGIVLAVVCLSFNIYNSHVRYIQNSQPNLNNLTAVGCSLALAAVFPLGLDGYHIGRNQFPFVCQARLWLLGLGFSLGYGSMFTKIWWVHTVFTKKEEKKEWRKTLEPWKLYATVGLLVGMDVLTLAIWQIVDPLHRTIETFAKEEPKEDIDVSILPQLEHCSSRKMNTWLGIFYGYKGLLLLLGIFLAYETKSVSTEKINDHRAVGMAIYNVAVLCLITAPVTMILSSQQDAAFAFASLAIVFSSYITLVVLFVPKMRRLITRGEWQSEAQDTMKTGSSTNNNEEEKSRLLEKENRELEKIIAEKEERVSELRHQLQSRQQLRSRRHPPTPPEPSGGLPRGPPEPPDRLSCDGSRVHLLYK
T2 sequence (O75899 42-941): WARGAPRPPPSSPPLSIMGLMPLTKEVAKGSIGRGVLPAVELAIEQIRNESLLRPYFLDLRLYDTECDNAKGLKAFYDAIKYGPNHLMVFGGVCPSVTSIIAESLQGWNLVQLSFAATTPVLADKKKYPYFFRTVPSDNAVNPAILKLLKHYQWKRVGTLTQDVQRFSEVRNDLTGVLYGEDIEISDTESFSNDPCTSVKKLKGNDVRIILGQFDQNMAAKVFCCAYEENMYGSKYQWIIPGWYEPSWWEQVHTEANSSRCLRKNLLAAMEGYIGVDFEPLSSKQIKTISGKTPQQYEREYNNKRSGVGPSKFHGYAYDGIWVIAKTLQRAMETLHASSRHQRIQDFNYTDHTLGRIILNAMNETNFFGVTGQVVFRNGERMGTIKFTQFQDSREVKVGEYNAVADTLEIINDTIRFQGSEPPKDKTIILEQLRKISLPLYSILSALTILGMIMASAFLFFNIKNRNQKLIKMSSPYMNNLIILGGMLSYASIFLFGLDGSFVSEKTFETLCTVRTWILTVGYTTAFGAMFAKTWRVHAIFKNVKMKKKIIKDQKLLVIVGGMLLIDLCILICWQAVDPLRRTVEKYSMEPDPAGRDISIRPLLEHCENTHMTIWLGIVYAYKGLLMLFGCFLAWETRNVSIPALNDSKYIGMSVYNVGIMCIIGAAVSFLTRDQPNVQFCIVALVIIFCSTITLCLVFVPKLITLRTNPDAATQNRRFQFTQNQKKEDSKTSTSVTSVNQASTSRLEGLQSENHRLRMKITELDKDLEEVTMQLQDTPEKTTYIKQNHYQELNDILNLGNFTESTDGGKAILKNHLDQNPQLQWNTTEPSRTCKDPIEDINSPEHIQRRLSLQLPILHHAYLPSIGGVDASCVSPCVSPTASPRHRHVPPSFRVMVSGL
Experimental: The effect of GABA in an automated GTPγS^35 radioligand filtration-binding assay in CHO cells expressing the GABAB(1A,2) receptor heterodimer was studied in the presence or absence of the positive allosteric modulator test compounds.
as §1, §2, §3
GABABR1a and GABABR2 were cloned from human brain cDNA and subcloned into pCI-Neo (Promega) and pALTER-1 (Promega), respectively.
In order to optimise the Kozak consensus sequence of GABABR2, in situ mutagenesis was performed using the Altered Sites Mutagenesis kit according to manufacturer's instruction (Promega) with the following primer, 5′-[…]-3′. The optimised GABABR2 was then restricted from pALTER-1 with Xho I+Kpn I and subcloned into the mammalian expression vector pcDNA3.1 (−)/Zeo (Invitrogen) to produce the final construct, pcDNA3.1 (−)/Zeo-GABABR2.
For generation of stable cell lines, CHO-K1 cells were grown in Nut mix F-12 (Ham) media supplemented with 10% FBS, 100 U/ml Penicillin and 100 μg/ml Streptomycin at 37° C. in a humidified CO2-incubator. The cells were detached with 1 mM EDTA in PBS and 1 million cells were seeded in 100 mm petri dishes. After 24 hours the culture media was replaced with OptiMEM and incubated for 1 hour in a CO2-incubator.
For generation of a cell line expressing the GABABR1a/GABABR2 heterodimer, GABABR1a plasmid DNA ([…]) GABABR2 plasmid DNA (4 μg) and lipofectamine (24 μl) were mixed in 5 ml OptiMEM and incubated for 45 minutes at room temperature. […] After expansion, the GABAB receptor functional response was tested by measuring the GABAB receptor dependent release of intracellular calcium in a fluorescence imaging plate reader (FLIPR). […]

T1 sequence (Q9UBS5 15-961 limits assumed): as the sequence (Q9UBS5 15-961 limits assumed) above
T1 sequence (O75899 42-941): as the sequence (O75899 42-941) above

Cc1nc2ccc(Br)cc2c(-c2ccc(F)cc2)c1C(C)Oc1ccc(Cl)cc1 (stereo not drawn) [Example 2, 6-bromo-3-[1-(4-chlorophenoxy)ethyl]-4-(4-fluorophenyl)-2-methylquinoline]
EC50 [1]: 6500 nM | EC50 [2]: 9200 nM

Cc1nc2ccc(N3CCCCC3)cc2c(-c2ccc(F)cc2)c1C(C)Oc1ccc(Cl)cc1 (stereo not drawn) [Example 4, 3-[1-(4-chlorophenoxy)ethyl]-4-(4-fluorophenyl)-2-methyl-6-piperidin-1-ylquinoline]
EC50 [1]: 1000 nM | EC50 [2]: 24000 nM

Cc1nc2ccc(N3CCCCC3)cc2c(-c2ccc(F)cc2)c1C(C)Oc1ccccn1 (stereo not drawn) [Example 5, 4-(4-fluorophenyl)-2-methyl-6-piperidin-1-yl-3-[1-(pyridin-2-yloxy)ethyl]quinoline]
EC50 [1]: 1800 nM

Cc1nc2ccc(N3CCCCC3)cc2c(-c2ccc(F)cc2)c1C(C)Oc1ccc(C#N)cc1 (stereo not drawn) [Example 6, 4-{1-[4-(4-fluorophenyl)-2-methyl-6-piperidin-1-ylquinolin-3-yl]ethoxy}benzonitrile]
EC50 [1]: 2900 nM

Cc1nc2ccc(N3CCCCC3)cc2c(-c2ccc(F)cc2)c1C(C)Oc1cccc(C#N)c1 (stereo not drawn) [Example 7, 3-{1-[4-(4-fluorophenyl)-2-methyl-6-piperidin-1-ylquinolin-3-yl]ethoxy}benzonitrile]
EC50 [1]: 1500 nM

Cc1nc2ccc(N3CCCCC3)cc2c(-c2ccc(F)cc2)c1C(C)Oc1ccc(S(C)(=O)=O)cc1 (stereo not drawn) [Example 8, 4-(4-fluorophenyl)-2-methyl-3-{1-[4-(methylsulfonyl)phenoxy]ethyl}-6-piperidin-1-ylquinoline]
EC50 [1]: 1700 nM

Cc1nc2ccc(N3CCCCC3)cc2c(-c2ccc(F)cc2)c1C(C)Oc1cccnc1 (stereo not drawn) [Example 9, 4-(4-fluorophenyl)-2-methyl-6-piperidin-1-yl-3-[1-(pyridin-3-yloxy)ethyl]quinoline]
EC50 [1]: 3000 nM

Cc1nc2ccc(N3CCCCC3)cc2c(-c2ccc(F)cc2)c1C(C)Oc1ccccc1Cl (stereo not drawn) [Example 10, 3-[1-(2-chlorophenoxy)ethyl]-4-(4-fluorophenyl)-2-methyl-6-piperidin-1-ylquinoline]
EC50 [1]: 1300 nM

COc1ccc(OC(C)c2c(C)nc3ccc(N4CCCCC4)cc3c2-c2ccc(F)cc2)cc1 (stereo not drawn) [Example 11, 4-(4-fluorophenyl)-3-[1-(4-methoxyphenoxy)ethyl]-2-methyl-6-piperidin-1-ylquinoline]
EC50 [1]: 1600 nM

Cc1nc2ccc(N3CCCCC3)cc2c(-c2ccc(F)cc2)c1C(C)Oc1cccc(N(C)C)c1 (stereo not drawn) [Example 12, (3-{1-[4-(4-fluorophenyl)-2-methyl-6-piperidin-1-ylquinolin-3-yl]ethoxy}phenyl)dimethylamine]
EC50 [1]: 2200 nM

Cc1nc2ccc(N3CCCCC3)cc2c(-c2ccc(F)cc2)c1C(C)Oc1ccccc1C(C)C (stereo not drawn) [Example 13, 4-(4-fluorophenyl)-3-[1-(2-isopropylphenoxy)ethyl]-2-methyl-6-piperidin-1-ylquinoline]
EC50 [1]: 300 nM

Cc1nc2ccc(N3CCCCC3)cc2c(-c2ccc(F)cc2)c1C(C)Oc1cccc(C(N)=O)c1 (stereo not drawn) [Example 14, 3-{1-[4-(4-fluorophenyl)-2-methyl-6-piperidin-1-ylquinolin-3-yl]ethoxy}benzamide]
EC50 [1]: 4500 nM

Cc1nc2ccc(N3CCCCC3)cc2c(-c2ccc(F)cc2)c1C(C)Oc1ccccc1C#N (stereo not drawn) [Example 15, 2-{1-[4-(4-fluorophenyl)-2-methyl-6-piperidin-1-ylquinolin-3-yl]ethoxy}benzonitrile]
EC50 [1]: 900 nM

Cc1nc2ccc(N3CCCCC3)cc2c(-c2ccc(F)cc2)c1C(C)n1ccccc1=O (stereo not drawn) [Example 16, 1-{1-[4-(4-fluorophenyl)-2-methyl-6-piperidin-1-ylquinolin-3-yl]ethyl}pyridin-2(1H)-one]
EC50 [1]: 24000 nM

Cc1nc2ccc(N3CCN(C)CC3)cc2c(-c2ccc(F)cc2)c1C(C)Oc1ccc(Cl)cc1 (stereo not drawn) [Example 17, 3-[1-(4-chlorophenoxy)ethyl]-4-(4-fluorophenyl)-2-methyl-6-(4-methylpiperazin-1-yl)quinoline]
EC50 [1]: 7600 nM

Cc1nc2ccc(N3CCN(C)CC3)cc2c(-c2ccc(F)cc2)c1C(C)Oc1ccccc1C(C)C (stereo not drawn) [Example 18, 4-(4-fluorophenyl)-3-[1-(2-isopropylphenoxy)ethyl]-2-methyl-6-(4-methylpiperazin-1-yl)quinoline]
EC50 [1]: 4300 nM

Cc1nc2ccc(N3CCCCC3)cc2c(-c2ccc(F)cc2)c1C(C)Oc1ccc(O)cc1 (stereo not drawn) [Example 19, 4-{1-[4-(4-fluorophenyl)-2-methyl-6-piperidin-1-ylquinolin-3-yl]ethoxy}phenol]
EC50 [1]: 1200 nM

Cc1nc2ccc(Br)cc2c(-c2ccc(F)cc2)c1C(=O)OC(C)(C)C [Example 20, tert-butyl 6-bromo-4-(4-fluorophenyl)-2-methylquinoline-3-carboxylate]
EC50 [2]: 3100 nM

Cc1nc2ccc(N3CCCCC3)cc2c(-c2ccc(F)cc2)c1COc1ccc(Cl)cc1 [Example 25, 3-[(4-chlorophenoxy)methyl]-4-(4-fluorophenyl)-2-methyl-6-piperidin-1-ylquinoline]
EC50 [1]: 1100 nM
